{"source": "patent US20090297492A1", "about": "“Method for Improving Cognitive Performance” (YAMAHA HATSUDOKI KABUSHIKI KAISHA, priority 2008, published 2009)", "key": {"[1]": {"tested_on": "healthy males aged 50 to 69", "test": "P300 event-related potential of electroencephalogram, auditory oddball paradigm", "type": "in vivo, human", "excerpt": "On the other hand, event-related potential, which is a type of electroencephalogram, is a method for measuring cognitive functions by measuring the activity of the cerebral nerves during cognitive work. In particular, the P300 (P3b) component of event-related potential has been used to estimate the mental work load (A. F. Kramer and T. Weber, Handbook of psychophysiology (2nd Edition), J. T. Cacioppo et al. (Eds.), New York, Cambridge University Press, (2000) pp. 794-814). In a state where two tasks are simultaneously executed, when one task is made difficult (or the priority of one task is increased), the execution performance of the other task is lowered. Based on a study using such a dual-task method, the P300 amplitude is considered to clearly reflect the cognitive functions in the perception-central nerve level that caused the amplitude (E. Donchin et al., Psychophysiology: Systems, processes, and applications, M. G. H. Coles et al. (Eds.), New York, Guilford Press, (1986) pp. 702-718). That is to say, the P300 amplitude reflects the degree of attention, the degree of concentration, and the degree of cognitive load, for a task of recognizing surroundings.\nIn a P300 test, for example, an auditory oddball paradigm can be employed. […] Then, a change in the obtained amplitude before and after ingestion is measured based on the Grand Average. […]\nIn the electroencephalogram, an auditory oddball paradigm was used in which two types of sounds consisting of a high-pitched sound having a frequency of 2 KHz and a low-pitched sound having a frequency of 1 KHz were emitted from a headphone, and the test subjects were instructed to press a button as quickly and accurately as possible at the moment when the test subjects heard the high-pitched sound. […] The evoked electroencephalograms were measured with the frontal polar (Fpz) electrode as ground, and two linked electrode attached to the left and right earlobes as reference. […]"}, "[2]": {"tested_on": "healthy males aged 50 to 69", "test": "CogHealth cognitive function test (task-switching) with administration of astaxanthin", "type": "in vivo, human", "details": "for Simple reaction, average reaction time: 10 subjects", "excerpt": "CogHealth, mentioned above, is based on task-switching that is used for evaluating higher brain functions (executive functions), such as the suppression of an action or the reorganization of information processing (A. F. Kramer et al., Nature, Vol. 400, pp. 418-419 (1999), N. J. Cepeda et al, Developmental Psychology, Vol. 37, No. 5, pp. 715-730 (2001), and S. Hsieh and L. C. Liu, Brain Res. Cogn. Brain Res., Vol. 22, No. 2, pp. 165-175 (2005)). Furthermore, fMRI analysis of brain proves that frontal lobe activity and task-switching relate to each other, and thus CogHealth is accepted as a frontal lobe function test. […] In CogHealth measurement, analysis is performed by calculating an average RT (reaction time) for each task.\n“Simple reaction” refers to a task of pressing a button when a card is flipped from face-down to face-up. “Choice reaction” refers to a task of pressing a button based on the judgment of whether the card flipped from face-down to face-up is red or black. In other words, the simple reaction and the choice reaction are tasks relating to reaction time and suppression time in the function of the human frontal lobe. The simple reaction time is the time taken to perform one reaction to one sensory stimulus, and the choice reaction time is the time necessary to recognize a type of a given stimulus, and to make a reaction depending on the type in a predetermined manner.\n“Working memory” refers to a task of pressing a button based on the judgment of whether or not a flipped card is the same as the preceding card. “Delayed recall” refers to a task of pressing a button based on the judgment of whether or not a flipped card is the same as a card that was present in the delayed recall task. “Working memory” and “delayed recall” are tasks for measuring memory, such as immediate memory and episodic memory. Working memory is a concept that includes not only information storage for a short period but also cognitive information processing. Working memory is memory used for a very short period of time in units of seconds, but the delayed recall is memory used for a period of time slightly longer than that of the working memory.\n“Divided attention” refers to a task of pressing a button when at least one of five cards moving up and down is brought into contact with an upper or lower set line, and is a task for measuring spatially divided attention ability. In other words, such divided attention is an ability not to concentrate on one point but to allocate attention to the surroundings (spatially divided attention ability or spatially allocated attention ability). The meaning of divided attention is entirely different from attention scattering.\nThe astaxanthin-containing soft capsules (each capsule contains 3 mg of astaxanthin) were administered to the test subjects by ingestion of two capsules with water twice a day after eating breakfast and supper. The administration period was 12 weeks.\nIn this example, in order to evaluate cognitive function, measurement using CogHealth (based on task-switching) and P300 (one of the event-related potentials of an electroencephalogram) was performed at 6 weeks and 12 weeks after starting administration.\nThe average RT (reaction time) was calculated for each of the tasks “simple reaction”, “choice reaction”, “working memory”, “delayed recall”, and “divided attention”. For two memory tasks (“working memory” and “delayed recall”), analysis was performed by also calculating the average AR (correct answer ratio).\nFor each index, a multiple comparison (Dunnet) was performed to obtain the P value. Regarding the result of P300, a Student's t-test was used additionally as a comparison before and after ingestion."}, "[3]": {"details": "After 6 weeks, two 3 mg capsules twice a day, oral, Mean ± SD"}, "[4]": {"details": "After 12 weeks, two 3 mg capsules twice a day, oral, Mean ± SD"}}}
{"smiles": "CC1=C(/C=C/C(C)=C/C=C/C(C)=C/C=C/C=C(C)/C=C/C=C(C)/C=C/C2=C(C)C(=O)[C@@H](O)CC2(C)C)C(C)(C)C[C@H](O)C1=O", "note": "[astaxanthin]", "values": [{"measurement": "P300 Amplitude", "setting": "[1]; After 12 weeks, at Fz, two 3 mg capsules twice a day, oral, Mean ± SD", "result": "−10.54 ± 3.39", "unit": "μV"}, {"measurement": "Change in P300 amplitude at Fz", "setting": "[1]; multiple comparisons, before/after comparison P=0.057", "result": "no significant change"}, {"measurement": "Effect on concentration on the recognition of surroundings", "setting": "[1]; overall conclusion from P300", "result": "an effect of improving concentration on the recognition of surroundings"}, {"measurement": "Choice reaction, average reaction time", "setting": "[2]; [3]", "result": "480.63 ± 39.87", "unit": "ms"}, {"measurement": "Delayed recall (Correct answer rate: %)", "setting": "[2]; [3]", "result": "71.19 ± 5.98", "unit": "%"}, {"measurement": "Delayed recall, average reaction time", "setting": "[2]; [3]", "result": "975.40 ± 190.75", "unit": "ms"}, {"measurement": "Divided attention, average reaction time", "setting": "[2]; [3]", "result": "419.52 ± 59.32", "unit": "ms"}, {"measurement": "Working memory, average reaction time", "setting": "[2]; [3]", "result": "732.95 ± 174.83", "unit": "ms"}, {"measurement": "Simple reaction, average reaction time", "setting": "[2]; [3]", "result": "303.31 ± 33.80", "unit": "ms"}, {"measurement": "Choice reaction, average reaction time", "setting": "[2]; [4]", "result": "463.63 ± 26.49", "unit": "ms"}, {"measurement": "Delayed recall (Correct answer rate: %)", "setting": "[2]; [4]", "result": "70.71 ± 8.91", "unit": "%"}, {"measurement": "Delayed recall, average reaction time", "setting": "[2]; [4]", "result": "916.77 ± 151.04", "unit": "ms"}, {"measurement": "Divided attention, average reaction time", "setting": "[2]; [4]", "result": "412.07 ± 51.97", "unit": "ms"}, {"measurement": "Working memory (Correct answer rate: %)", "setting": "[2]; [4]", "result": "96.30 ± 3.94", "unit": "%"}, {"measurement": "Working memory, average reaction time", "setting": "[2]; [4]", "result": "654.83 ± 128.42", "unit": "ms"}, {"measurement": "Simple reaction, average reaction time", "setting": "[2]; [4]", "result": "281.76 ± 33.56", "unit": "ms"}, {"measurement": "Change in reaction time for divided attention", "setting": "[2]; before ingestion versus 6 weeks after ingestion, P=0.034", "result": "significant reduction"}, {"measurement": "Change in reaction time, all tasks", "setting": "[2]; before ingestion versus 12 weeks after ingestion, P=0.013 to 0.034", "result": "significantly reduced"}, {"measurement": "Effect on agility, judging ability and spatially allocated attention ability", "setting": "[2]; overall conclusion from CogHealth", "result": "an effect of improving agility"}, {"measurement": "Change in reaction time, all tasks of CogHealth", "setting": "[2]; versus before ingestion", "result": "a reduction in reaction time was confirmed"}, {"measurement": "Change in correct answer ratio, working memory", "setting": "[2]; versus before ingestion, P=0.045", "result": "significant increase"}, {"measurement": "Change in correct answer ratio, delayed recall", "setting": "[2]; versus before ingestion, P=0.991", "result": "no significant change"}]}
